{"source": "patent US8143192B2", "about": "“Methods for increasing the resistance of plants to hypoxic conditions” (Bayer Cropscience N.V., priority 2005, dated 2012)", "key": {"[1]": {"test_system": "Arabidopsis thaliana cv. C24 plants", "settings": "0.7% Difco agar; for Root depth, mean: after three weeks, untreated mean 1.9475, *p < 0.01", "protocol": "A container (1) with a seal (2) is filled with a transparent or translucent growth medium (3), such as 0.4% agar-water or 0.7% agar-water, to which additional test-compounds may be added. One pregerminated seed is added to the tube and allowed to grow for three weeks. After three weeks of growth in vertical position, the root depth (5) of the plant (4) is measured from the top of the medium to the lowest point of the roots.\nGermination medium: Half concentrated Murashige and Skoog salts; B5 vitamins; 1.5% sucrose; pH 5.8; 0.4% Difco agar.\nSterilization of Arabidopsis seeds: 2 min. 70% ethanol; 10 min. bleach (6% active chlorine)+1 drop Tween 20 for 20 ml solution; wash 5 times with sterile tap water; sterilization is done in 2 ml eppendorf tubes. Arabidopsis seeds sink to the bottom of the tube, allowing removal of the liquids by means of a 1 ml pipetman.\nPregermination of seeds: In 9 cm Optilux Petridishes (Falcon) containing 10 ml sterile tap water. Low light overnight to 24 hours.\nGrowing of Arabidopsis plants: Seeds are sown in 25×150 mm glass tubes (Sigma C5916) with natural (transparent) colored closure (Sigma C5791) containing ±34 ml germination medium: 1 seed/tube. The tubes are put in the two outer rows of tube holders for 40 tubes (VWR nalg5970-0025) wrapped in aluminium foil so that the roots can grow in the dark. Plants are grown at 23° C. 30-50 μEinstein s^−1m^−2. 12 hours light-12 hours dark.\nAfter three weeks, the root depth is measured from the surface of the medium to the lowest point of root growth."}, "[2]": {"test_system": "Arabidopsis thaliana cv. C24 plants", "test": "Depth of Arabidopsis root growth in growth medium after application of 6-chloronicotinic acid (6-CNA)", "type": "in vivo", "settings": "for Root depth, mean: after three weeks, untreated mean 2.031034", "method": "Sterilization of Arabidopsis seeds: 2 min.\nLow light overnight to 24 hours.\nPlants are grown at 23° C. 30-50 μEinstein s^−1m^−2. 12 hours light-12 hours dark. (See FIG. 1)"}}, "note": "Where two headings read alike, the source gives them in different places.", "data": [{"compound": "O=[N+]([O-])/N=C1\\NCCN1Cc1ccc(Cl)nc1", "note": "[imidacloprid]", "values": [{"measurement": "Root depth, mean", "setting": "[1]; 50 mg/L imidacloprid in germination medium", "value": 2.1875, "unit": "mm"}, {"measurement": "Root depth, mean", "setting": "[1]; 100 mg/L imidacloprid in germination medium", "value": 2.2725, "unit": "mm"}, {"measurement": "Root protrusion into growth medium compared to non-treated plants", "setting": "[1]; 50 and 100 mg/l imidacloprid, three weeks", "value": "protruded deeper in the growth medium"}]}, {"compound": "O=C(O)c1ccc(Cl)nc1", "note": "[6-CNA, 6-chloronicotinic acid]", "values": [{"measurement": "Root depth, mean", "setting": "[2]; 1 mg/L 6-CNA in germination medium, *p < 0.01", "value": 2.18, "unit": "mm"}, {"measurement": "Root depth, mean", "setting": "[2]; 5 mg/L 6-CNA in germination medium, **p < 0.05", "value": 2.118, "unit": "mm"}, {"measurement": "Root protrusion into growth medium compared to non-treated plants", "setting": "[2]; 1 and 5 mg/l 6-CNA, three weeks", "value": "protruded deeper in the growth medium"}]}]}
